Reference: patent US8871681B2, “Herbicidal compositions comprising 4-amino-3-chloro-5-fluoro-6-(4-chloro-2-fluoro-3-methoxyphenyl) pyridine-2-carboxylic acid or a derivative thereof and certain sulfonylureas” (Dow AgroSciences LLC, priority 2012, dated 2014)

Test system: SIDSP (Sida spinosa, prickly sida)
Experiment: Post-emergence herbicidal activity of mixtures in forage crops, greenhouse (Example IV)
Assay type: in vivo, Sida spinosa L.
Conditions: Table 58 (forage), foliar-applied, after approximately 21 days
Procedure: Seeds or root cuttings of the desired test plant species were planted in Sun Gro MetroMix® 306 planting mixture, which typically has a pH of 6.0 to 6.8 and an organic matter content of about 30 percent, in plastic pots with a surface area of 126.6 square centimeters (cm^2). When required to ensure good germination and healthy plants, a fungicide treatment and/or other chemical or physical treatment was applied. The plants were grown for 14-60 days in a greenhouse with an approximate 14 hour photoperiod which was maintained at approximately 28° C. during the day and 24° C. during the night. Nutrients and water were added on a regular basis and supplemental lighting was provided with overhead metal halide 1000-Watt lamps as necessary. The plants were employed for testing when they reached the BBCH13 to BBCH23 leaf stage.
Treatments consisted of the benzyl ester of 4-amino-3-chloro-5-fluoro-6-(4-chloro-2-fluoro-3-methoxy-phenyl)pyridine-2-carboxylic acid (Compound A), formulated as a SC, and a second herbicide alone and in combination.
A measured aliquot of Compound A was placed in 25 milliliter (mL) glass vial and diluted in a volume of 1.25% (v/v) Agri-dex crop oil concentrated to obtain stock solutions. Compound requirements are based upon a 12 mL application volume at a rate of 187 liters per hectare (L/ha). Spray solutions of the second cereal herbicide and experimental compound mixtures were prepared by adding the stock solutions to the appropriate amount of dilution solution to form 12 mL spray solution with active ingredients in two- and three-way combinations. […]
The treated plants and control plants were placed in a greenhouse as described above and watered by sub-irrigation to prevent wash-off of the test compounds. After approximately 21 days, the condition of the test plants, as compared with that of the control plants, was determined visually and scored on a scale of 0 to 100 percent where 0 corresponds to no injury and 100 corresponds to complete kill. […]

Structure (SMILES): COc1c(Cl)ccc(-c2nc(C(=O)OCc3ccccc3)c(Cl)c(N)c2F)c1F [Compound A Benzyl Ester]
- Weed Control SIDSP Obs (2.2 gai/ha alone): 77%
- Weed Control SIDSP Obs (4.4 gai/ha alone): 85%
